The text below walks through data of US20250066727A1, “COMPOSITIONS AND METHODS FOR CULTURING STEM CELLS” (Beijing TheraXyte BioScience Co. Ltd., priority 2021, published 2025).

Holding throughout (type): cell-based
Experiment [1] has as its system adult KSCs. As to the kind of experiment: Growth supplement function assay (EdU / p63). To be noted: 24 hours; for concentration that could promote adult KSCs proliferation (EdU/p63 ratio): added to KSFX-free basal medium. The method, then:
For the EdU (5-ethynyl-2′-deoxyuridine) assay, 5×10^3 cells were plated to a well of the 96-well cell culture plate and cultured for overnight. On the second day, the cells were treated with 10 μM EdU for 3 hours at 37° C. The cells were washed with PBS and then fixed with 4% formaldehyde for 30 min at RT. The cells were washed with PBS and then permeabilized with 0.1% Triton for 20 min at RT. The cells were washed with PBS and then labeled with freshly prepared EdU labeling buffer containing 5 μM of Sulfo-Cyanine 3 azide, 4 mM of Copper(II) sulfate pentahydrate, 2 mg/mL of Sodium L-ascorbate in PBS for 30 min at RT. The cells were washed with PBS and labeled with Hoechst if needed. Finally, the plate was scanned and analyzed by Celllnsight CX5 HCA reader.
Cells were washed with PBS once and then fixed with 4% formaldehyde for 30 min at room temperature (RT). The cells were washed with PBS and then permeabilized with 0.1% Triton for 20 min at RT The cells were washed with PBS and then blocked with 3% BSA for 1 hr at RT. Then the cells were incubated with primary antibodies such as anti-KRT14, or anti-p63 overnight at 4° C. The cells were washed with PBS and labeled with the secondary antibody such as Goat anti-Mouse Alexa Fluor 488, Goat anti-Rabbit Alexa Fluor 647, and Hoechst if needed. Finally, the plate was scanned and analyzed by CellInsight CX5 HCA reader. Microscopy was captured with Confocal Microscope A1 HD25.
Different concentrations of each factor were added to the KSFX-free basal medium and the adult KSCs were cultured for 24 hours. Then cells were labeled with EdU as well as the KSCs marker p63. The ratio of EdU/p63 indicates the proliferation rate of KSCs, and the p63 count indicates the total cell number which is a result of cell proliferation and cell death.

Experiment [2] has as its system adult KSCs. As to the kind of experiment: Calcium concentration function assay in KSFX-free basal medium. As to the method: (§1) For long-term proliferation assay, cells were continuously passaged on the 6-well cell culture plate. For each passage, 2×10^5 viable cells were plated and then cultured for about 5 days, when the cells were ˜90% confluent, cells were passaged and the cell number as well as the viability with the cell counter were recorded. Microscopy was performed with Eclipse TS100 (Nikon).
The effect of calcium concentrations in the KSFX-free basal medium on the proliferation and differentiation of adult KSCs were tested. Cells were cultured in different concentrations of calcium, including 0 mM, 0.05 mM, 0.15 mM, 0.5 mM, and 1.5 mM for 10 passages. As shown in FIG. 8 and FIG. 9A, withdraw of calcium led to the growth stop of adult KSCs after 3 passages.

Experiment [3] concerns adult KSCs. As to the kind of experiment: Coating matrix function assay: attachment and spreading of adult KSCs in KSFX-free basal medium. As to the method:
Coating Matrix Preparation—Coating matrix such as Collagen I, Poly-D-Lysine (PDL), Matrigel, rh-Fibronectin, and rh-Laminin 521 were prepared according to the instructions of the manufacture (Table 1). Briefly, for one well of the 6-well cell culture plate, 1 mL of the working solution was added to the surface of the well and the plate was incubated at the recommended condition. Then the well was washed once with 1 mL of PBS and ready to be used.
The keratinocyte stem cells (KSCs) were isolated from donated foreskin or fetal skin tissue. Briefly, the skin tissue was cleaned up with 70% ethanol and washed several times with PBS containing antibiotics. The tissue in PBS was collected, trimmed away any fat and loose fascia, and cut into strips approximately 0.5 cm×1.5 cm. The tissue was submerged in dispase and treated overnight at 4° C. The epidermis was then separated from the dermis and washed with PBS several times. All the epidermis was collected into one tube containing the TrypLE and incubated for 30 minutes at 37° C. Enough PBS was added to neutralize the TrypLE and the solution was pipetted up and down to suspend the cells. The cell suspension was passed through a 70 μm cell strainer, and then the cells were pelleted by centrifugation at 300 g for 10 minutes. The cell pellet was resuspended in culture medium and the concentration of the viable cells/mL was determined. 2×10^4 viable epidermal cells/cm^2 was plated on culture flask treated with coating matrix, and then the flask was incubated in a 37° C., 95% air/5% CO2 saturated humidity chamber. The culture medium was changed every 48 hours. Once the cultures were ˜80% confluent, the cells were subcultured and/or cryopreserved using a freezing medium. For subculture, cells were washed once by PBS then treated with TrypLE for no more than 6 min at 37° C. PBS was added to neutralize the TrypLE, and then the tube was centrifuged at 300 g for 10 min. New flasks were seeded at 1-2×10^4 cells/cm^2.
The function of each coating matrix listed in Table 1 was tested for the attachment and spreading of adult KSCs. […]

Experiment [4] has as its system adult KSCs. Put plainly: Long-term proliferation of adult KSCs on coating matrix in KSFX-free basal medium. The following applies: 5 passages. The method, then:
as §1
Further, the proliferation functions of FN, COLI, and LN was also tested in the KSFX-free basal medium. Adult KSCs were continuously passaged and the population doubling (PD) curves were calculated.

[5] abbreviates: 1.5 mM calcium, KSFX-free basal medium.

For the molecule `Cc1cccc(-c2nn(C(=S)Nc3ccccc3)cc2-c2ccnc3ccccc23)n1` [A 83-01], in experiment [1], the “concentration that could promote adult KSCs proliferation (EdU/p63 ratio)” value was “at least 0.5 μM”.
Take `C[C@@H](N)[C@H]1CC[C@H](C(=O)Nc2ccncc2)CC1` [Y-27632]: the “concentration that could promote adult KSCs proliferation (EdU/p63 ratio)” value in experiment [1] is given as “at least 1 μM”. Besides, the “change of the total cell number (p63 count) compared with the blank” value in experiment [1] (at least 1 μM (such as 1-10 μM), KSFX-free basal medium) was “two-fold change”.
In the case of `[Ca+2]` [calcium], the “passages after which adult KSCs stopped growing” value in experiment [2] (0 mM calcium (withdraw of calcium), KSFX-free basal medium) is 3 passages. Moreover, the “proliferation rate of adult KSCs” value in experiment [2] (0.05 mM calcium, later passages) was “started to grow slower later”. In addition, the “proliferation of adult KSCs” value in experiment [2] (0.5 mM calcium, KSFX-free basal medium) is “could proliferate longer, with more cell-to-cell connections”. In experiment [2] (setting [5]), the “differentiation of adult KSCs” value is given as “most of cells had differentiated with the collapsed nucleus” and the “passages after which adult KSCs stopped growing” value was found to be 5 passages. Moreover, the “calcium concentration that can better support the long-term expansion of adult KSCs” value in experiment [2] (KSFX-free basal medium, 10 passages) fell in the range of 0.1 to 1.0 mM.
Take “COLI: Collagen I coating matrix, extracted from rat tail, 50 μg/mL”: the “attachment and spreading of adult KSCs” value in experiment [3] (after 30 min of culturing, bright-field microscopy) was “attached to the plate and spread with a flatten morphology”; in experiment [3] (after 2 hours of culturing), “fully spread”. The “attachment/spreading function, comparison among the coating matrix tested” value in experiment [3] (overall) is “performed better functions compared with MAT and PDL”. Besides, the “long-term expansion of adult KSCs in vitro” value in experiment [4] is “supported the long-term expansion of adult KSCs in vitro”. Further, the “proliferation of adult KSCs (population doubling) compared with blank” value in experiment [4] (continuously passaged) is reported as “could promote the proliferation of adult KSCs”.
